These are literature values, as cited in patent publication US6358944B1, “Methods and compositions for treating generalized anxiety disorder” (Vela Pharmaceuticals, Inc., priority 1999, dated 2002).

Molecules are shown by their SMILES.

As to `CN(C)CCC=C1c2ccccc2C=Cc2ccccc21` [cyclobenzaprine, 3-(5H-Dibenzo[a,d]cyclohepten-5-ylidene)-N,N-dimethyl-1-propanamine], for the setting “cyclobenzaprine treatment”, the “other less common side effects” value was “nausea, tiredness, constipation, blurred vision, nervousness, confusion, abdominal pain and discomfort”; the principal side effects entry is “drowsiness, dry mouth or tongue, dizziness and bad taste”. Under “cyclobenzaprine-treated patients at recommended doses”, the organ toxicity result is recorded as “No indications of organ toxicity were found”. For the setting “three individuals who ingested between 260 to 900 mg”, the “toxic effects after overdose” value was “Toxic effects were reported”.
